Laboratory results taken from patent US8835511B2, “Absorbent articles including an odor control system” (The Procter & Gamble Company, priority 2007, dated 2014).

How the values were obtained:
[1] = Odor unpleasantness of samples exposed to malodorant solution, evaluated by a panel of expert graders; settings: % relative unpleasantness vs. reference (malodorant solution = 100); 10 ml of 0.1% aqueous ammonia; 16 mg total odor control material; five expert graders, 4 replicates, 25° C.
Protocol: For proving the synergistic effect on odor reduction several test samples are prepared by exposing them to a 0.1% aqueous solution of ammonia, which serves as a test malodorous substance. The first data point in table 2 serves as a benchmark as it represents the degree of unpleasantness of the ammonia solution without added odor control material. Data points 2-3 in table 2 are illustrating the malodor-reducing activity of two exemplary odor control materials alone, specifically alpha-amylcinnamaldehyde as exemplary aldehyde and menthyl acetate as an exemplary odor control material acting on the nose receptors. The last data point 4 in table 2 is illustrating the activity of the odor control system of the present invention. For comparability, two individual odor control materials were mixed at half their amount compared to data points 2-3. Data point 4 was obtained by testing a mixture of alpha-Amylcinnamaldehyde and menthyl acetate. […] Thus, synergistic odor control activity has been proven. Further, odor unpleasantness and pleasantness of these samples was evaluated by a panel of expert graders. In particular, five different expert graders evaluated 4 replicates for each sample. Odor unpleasantness was evaluated by using a scale from −10 to +0, where—10 indicates the max odor unpleasantness, 0 indicates no odor. […]

[2] = Thermogravimetric analysis (TGA), weight loss over time at 40° C.; format: physicochemical; settings: samples kept at 40° C. for 180 minutes, mixture = menthyl acetate (10%) + silica gel (ex Grace, coded 123)
Protocol: The stabilization effect has been proven by running a Thermogravimetric analysis (TGA) on samples of narrow silica gel treated with 10 weight-% of menthyl acetate. Specifically, the method is based on evaluation of weight loss over time at specific temperature (40° C.). The samples were kept at 40° C. for 180 minutes. In order to have a basis for comparison the TGA analysis was performed on a sample of pure menthyl acetate and a sample of pure silica gel as references together with a sample of menthyl acetate (10%)+silica gel (ex Grace, coded 123).

Row | Weight Loss [2] [%] | SMILES | Odor unpleasantness [1] [%]
1 | – | CCCCCC(C=O)=Cc1ccccc1 [Alpha-Amylcinnamaldehyde, alpha-amylcinnamaldehyde] | 64
2 | ~100 | CC(=O)OC1CC(C)CCC1C(C)C (stereo not drawn) [Menthyl acetate, menthyl acetate] | 46
